This passage reports solubility results from US20110165202A1, “SOLID STATE FORMS OF FOSAMPRENAVIR CALCIUM SALT AND PROCESSES FOR PREPARATION THEREOF” (PLIVA HRVATSKA D.O.O., priority 2010, published 2011).

This data set in a line: solubility of rod like amorphous particles compared to Form I. As to conditions: qualitative statement, no method or figures given.

Consider `CC(C)CN(C[C@@H](OP(=O)(O)O)[C@H](Cc1ccccc1)NC(=O)O[C@H]1CCOC1)S(=O)(=O)c1ccc(N)cc1` [rod like amorphous particles, calcium (2R, 3S)-1-(4-amino-N-isobutyl-phenylsulfonamido)-4-phenyl-3-(((S)-tetrahydrofuran-3-yloxy)carbonylamino)butan-2-yl phosphate], for which the solubility entry was “enhanced solubility compared to Form I”.
